Values after ≈ are worked out from the molar mass of the structure shown.
Columns and labels:
[1] = test system: T1, M. abscessus WT; assay: microbe, parasite or virus in culture; design: broth microdilution MIC according to CLSI, read at 14 days; details: Mycobacteroides abscessus, 336 h, read-out: WT MIC (µg/mL), day 14
T1 construct: ATCC 19977

[2] = target: T2, Eis2 (Mycobacteroides abscessus, UniProt B1MKV6); assay: Michaelis-Menten acetylation kinetics with purified Eis2, DTNB free-thiol assay (control substrate); type: biochemical
T2 construct: gene MAB_4532c; Eis2–pET30a, TEV cleavable N-terminal 6 histidine tag (removed)
T2 sequence (B1MKV6 entry or part of it): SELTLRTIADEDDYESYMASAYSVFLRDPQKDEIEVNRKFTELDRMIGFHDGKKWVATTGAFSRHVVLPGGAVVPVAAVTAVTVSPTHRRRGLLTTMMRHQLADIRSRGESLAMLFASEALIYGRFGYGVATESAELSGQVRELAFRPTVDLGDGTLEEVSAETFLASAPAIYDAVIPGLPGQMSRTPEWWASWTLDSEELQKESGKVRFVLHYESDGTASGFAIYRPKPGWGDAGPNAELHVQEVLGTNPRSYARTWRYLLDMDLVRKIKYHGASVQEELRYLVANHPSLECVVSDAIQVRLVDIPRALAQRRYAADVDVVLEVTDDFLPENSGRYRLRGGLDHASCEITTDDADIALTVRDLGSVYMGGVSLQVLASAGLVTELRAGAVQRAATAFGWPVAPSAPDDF

[3] = in vitro; design: HepG2 cytotoxicity, Cell-Titer Glo; details: human, hepg2 cells; read-out: HepG2 Cytotoxicity IC50
Procedure: (§1) MPS and cytotoxicity of experimental compounds and PTC-targeting controls against HepG2 (liver hepatocellular carcinoma cells ATCC HB-8065) were performed as previously described without any modifications (see ref. [56] for MPS assay and ref. [78] for cytotoxicity assay). […] Results reported as mean ± s.d., n = 3 biological replicate. The requirement for FF-NH2 to be activated by Eis2 led us to hypothesize that it would lack the mitochondrial protein synthesis (MPS) inhibition liability of other PTC-targeting agents. We therefore profiled FF-NH2, FF-ac and other analogues for MPS inhibition activity.

[4] = test system: HepG2 mitochondrial protein synthesis; assay: cells; design: mitochondrial protein synthesis inhibition in HepG2 cells; details: Homo sapiens, read-out: MPS IC50
Procedure: as §1, with “MPS inhibition and cytotoxicity assays MPS and” for “MPS and”

[5] = test system: NCC[C@H](O)C(=O)N[C@@H]1C[C@H](N)[C@@H](O[C@H]2O[C@H](CN)[C@@H](O)[C@H](O)[C@H]2O)[C@H](O)[C@H]1O[C@H]1O[C@H](CO)[C@@H](O)[C@H](N)[C@H]1O; assay: purified protein, by the assay type; design: Eis2 acetyltransferase kinetics, Michaelis-Menten fit for substrate
From the text: Consistent with previous findings, the aminoglycoside controls AMK and [compound left out] were also shown as substrates of Eis2 (ref. [47]), as well as CAM-NH2 and TAM-NH2. […] These findings highlight how specific chemical modifications to antibiotics govern substrate specificity and antimicrobial efficacy.

[6] = target: T2, Eis2; assay: Michaelis-Menten acetylation kinetics with purified Eis2, DTNB free-thiol assay; type: biochemical

| Compound | MIC [1] | CC50 at 72 h [3] | IC50 [4] | further results |
| --- | --- | --- | --- | --- |
| NCC[C@H](O)C(=O)N[C@@H]1C[C@H](N)[C@@H](O[C@H]2O[C@H](CN)[C@@H](O)[C@H](O)[C@H]2O)[C@H](O)[C@H]1O[C@H]1O[C@H](CO)[C@@H](O)[C@H](N)[C@H]1O [AMK, amikacin] | 4 to 8 µg/mL (≈ 6.83 to 13.7 µM) | – | – | Michaelis-Menten acetylation kinetics with purified Eis2, DTNB free-thiol assay [2]: the aminoglycoside controls AMK and hygromycin B were also shown as substrates of Eis2 |
| CS(=O)(=O)c1ccc([C@@H](O)[C@@H](CF)NC(=O)C(Cl)Cl)cc1 [Florfenicol] | – | > 200 µM | 1.2 ± 0.2 µM | – |
| Eis2 (Mycobacteroides abscessus ATCC 19977) | – | – | – | Km [5]: 232.6 ± 26 µM; Vmax [5]: 6 µM/min; kcat [5]: 4.7 ± 0.5 s⁻¹; kcat/Km [5]: 20000 ± 320 M⁻¹ s⁻¹ |
| O=C1CN(/N=C/c2ccc([N+](=O)[O-])o2)C(=O)N1 [Nitrofurantoin, nitrofurantoin] | – | 6.8 ± 0.3 µM | – | – |
| CS(=O)(=O)c1ccc([C@@H](O)[C@@H](CO)NC(=O)C(Cl)Cl)cc1 [Thiamphenicol] | – | > 200 µM | 1.4 ± 0.7 µM | – |
| CS(=O)(=O)c1ccc([C@@H](O)[C@H](N)CF)cc1 [FF-NH2, florfenicol amine] | 62.5 to 125 µg/mL (≈ 253 to 505 µM) | > 200 µM | > 100 µM | Michaelis-Menten acetylation kinetics with purified Eis2, DTNB free-thiol assay [6]: kcat/KM 6.7 × 10^3 ± 5.1 × 10^2 |
| N[C@H](CO)[C@H](O)c1ccc([N+](=O)[O-])cc1 [CAM-NH2, chloramphenicol amine] | – | > 200 µM | > 100 µM | – |
| CC(=O)NC[C@H]1CN(c2ccc(N3CCOCC3)c(F)c2)C(=O)O1 [LZD] | 8 µg/mL (≈ 23.7 µM) | – | – | – |
| CSc1ccc2c(c1)N(CCC1CCCCN1C)c1ccccc1S2 (stereo not shown) [Thioridazine, thioridazine] | – | 6.6 ± 0.3 µM | – | – |
| CC(=O)N[C@H](CF)[C@H](O)c1ccc(S(C)(=O)=O)cc1 [FF-ac, florfenicol acetyl] | – | > 200 µM | 4.7 ± 1.7 µM | – |
| CS(=O)(=O)c1ccc([C@@H](O)[C@H](N)CO)cc1 [TAM-NH2, thiamphenicol amine] | – | > 200 µM | > 100 µM | – |
| CC[C@H]1OC(=O)[C@H](C)[C@@H](O[C@H]2C[C@@](C)(OC)[C@@H](O)[C@H](C)O2)[C@H](C)[C@@H](O[C@@H]2O[C@H](C)C[C@H](N(C)C)[C@H]2O)[C@](C)(O)C[C@@H](C)CN(C)[C@H](C)[C@@H](O)[C@]1(C)O [AZITH] | > 32 µg/mL | – | – | – |
| CC(=O)NC[C@H]1CN(c2ccc(N3CCOCC3)c(F)c2)C(=O)O1 [Linezolid] | – | > 200 µM | 6.2 ± 1.6 µM | – |
| O=C(N[C@H](CO)[C@H](O)c1ccc([N+](=O)[O-])cc1)C(Cl)Cl [Chloramphenicol] | – | > 200 µM | 5.5 ± 2.5 µM | – |
| CC[C@H]1OC(=O)[C@H](C)[C@@H](O[C@H]2C[C@@](C)(OC)[C@@H](O)[C@H](C)O2)[C@H](C)[C@@H](O[C@@H]2O[C@H](C)C[C@H](N(C)C)[C@H]2O)[C@](C)(OC)C[C@@H](C)C(=O)[C@H](C)[C@@H](O)[C@]1(C)O [CLR] | 2 µg/mL (≈ 2.67 µM) | – | – | – |
| CN[C@@H]1[C@H](O)[C@H](NC)[C@H]2O[C@@]3(O)C(=O)C[C@@H](C)O[C@H]3O[C@@H]2[C@H]1O [SPC] | 512 µg/mL (≈ 1540 µM) | – | – | – |
| CC[C@H]1OC(=O)[C@H](C)[C@@H](O[C@H]2C[C@@](C)(OC)[C@@H](O)[C@H](C)O2)[C@H](C)[C@@H](O[C@@H]2O[C@H](C)C[C@H](N(C)C)[C@H]2O)[C@](C)(O)C[C@@H](C)C(=O)[C@H](C)[C@@H](O)[C@]1(C)O [ERY] | > 32 µg/mL | – | – | – |

— publication PMC12578646, “Prodrug florfenicol amine is activated by intrinsic resistance to target Mycobacterium abscessus” (Nature Microbiology, 2025)
